Target: T1, Recombinant human LTC4 synthase (Homo sapiens, UniProt Q16873)
T1 construct: made in house; host or cells: Pichia pastoris ('Piccia pastoralis' [sic])
T1 sequence (Q16873 1-150): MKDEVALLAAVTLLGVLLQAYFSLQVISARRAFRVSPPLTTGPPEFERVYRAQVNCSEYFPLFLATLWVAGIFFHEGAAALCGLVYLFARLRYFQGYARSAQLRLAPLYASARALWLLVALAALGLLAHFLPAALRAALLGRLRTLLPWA
Experiment: LTC4 synthase assay (conversion of LTA4 methyl ester to LTC4 methyl ester, HPLC)
Type: biochemical
Conditions: inhibitor concentration 0.3 μM; read-out: Percantage Inhibition (at a concentration of 0.3 μM)
Procedure: In the assay LTC4 synthase catalyses the reaction where the substrate LTA4 methyl ester is converted to LTC4 methyl ester. Recombinant human LTC4 synthase is expressed in Piccia pastoralis and the purified enzyme is dissolved in 25 mM Tris-buffer pH 7.8 and stored at −20° C. The assay is performed in phosphate buffered saline (PBS) pH 7.4, supplemented with 5 mM glutathione (GSH). The reaction is terminated by addition of acetonitrile/MeOH/acetic acid (50/50/1). The assay is performed at rt in 96-well plates. Analysis of the formed LTC4 methyl ester is performed with reversed phase HPLC (Waters 2795 utilizing an Onyx Monolithic C18 column). The mobile phase consists of acetonitrile/MeOH/H2O (32.5/30/37.5) with 1% acetic acid pH adjusted with NH3 to pH 5.6, and absorbance measured at 280 nm with a Waters 2487 UV-detector.
The following is added chronologically to each well: • 1. 50 μl assay buffer, PBS with 5 mM GSH. • 2. 0.5 μl inhibitor in DMSO. • 3. 2 μl LTC4 synthase in PBS. The total protein concentration in this solution is 0.025 mg/ml. Incubation of the plate at room temperature for 10 minutes. • 4. 0.5 μl LTA4 methyl ester. Incubation of the plate at rt for 1 min. • 5. 50 μl stop solution. 80 μl of the incubation mixture is analysed with HPLC.

| Structure (SMILES) | inhibition at 0.3 µM [%] |
| --- | --- |
| CCCCc1ccc(C(=O)Nc2ccc(C(=O)c3ccc(NC(=O)c4ccc(C(F)(F)F)cc4)c(C(=O)O)c3)cc2C(=O)O)cc1 [Example 9, 2-(4-butylbenzamido)-5-(4-(4-(trifluoromethyl)benzamido)-3-carboxyphenylcarbonyl)-benzoic acid] | 92 |

Same assay, conditions: inhibitor concentration 10 μM

| Structure (SMILES) | Percantage Inhibition at 10 μM (unless specified otherwise) [%] |
| --- | --- |
| O=C(c1ccc(Oc2ccc(Cl)cc2)c(C(=O)O)c1)c1ccc(Oc2ccc(Cl)cc2)c(C(=O)O)c1 [11:3, 5-{3-Carboxy-[4-(chlorophenoxy)]-benzoyl}-2-(4-chlorophenoxy)-benzoic acid] | 97 |

Same assay, conditions: inhibitor concentration 10 μM; read-out: Percantage Inhibition at 10 μM (unless specified otherwise)

| Structure (SMILES) | inhibition at 10 µM [%] |
| --- | --- |
| CN(c1ccc(Cl)cc1)c1ccc(C(=O)c2ccc(Oc3ccc(Cl)cc3)c(C(=O)O)c2)cc1 [6:1, 2-(4-Chloro-phenoxy)-5-{4-[(4-chloro-phenyl)-methyl-amino]-benzoyl}-benzoic acid] | 62 |
| O=C(c1ccc(NC(=O)c2cc(Cl)ccc2Cl)cc1)c1ccc(Nc2ccc(F)c(F)c2)c(C(=O)O)c1 [5:10, 5-[4-(2,5-Dichloro-benzoylamino)-benzoyl]-2-(3,4-difluoro-phenylamino)-benzoic acid] | 98 |
| CCCCOc1ccc(S(=O)(=O)Nc2ccc(C(=O)c3ccc(NC(=O)c4cccc(Cl)c4Cl)c(C(=O)O)c3)cc2C(=O)O)cc1 [Example 12, 5-[(3-Carboxy-4-(4-n-butoxy-benzenesulfonylamino)benzoyl)]-2-(2,3-dichlorobenzoylamino)benzoic acid] | 98 |
| O=C(c1ccc(Oc2ccc(C(F)(F)F)cc2)cc1)c1ccc(Oc2ccc(F)c(F)c2)c(C(=O)O)c1 [8:5, 2-(3,4-Difluoro-phenoxy)-5-[4-(4-trifluoromethyl-phenoxy)-benzoyl]-benzoic acid] | 96 |
| O=C(c1ccc(Nc2ccc(Cl)cn2)cc1)c1ccc(Nc2ccc(F)c(F)c2)c(C(=O)O)c1 [5:6, 5-[4-(5-Chloro-pyridin-2-ylamino)-benzoyl]-2-(3,4-difluoro-phenylamino)-benzoic acid] | 84 |
| O=C(c1ccc(Nc2ccc(F)c(F)c2)cc1)c1ccc(Oc2ccc(F)c(F)c2)c(C(=O)O)c1 [8:1, 2-(3,4-Difluoro-phenoxy)-5-[4-(3,4-difluoro-phenylamino)-benzoyl]-benzoic acid] | 97 |
| CN(c1ccc(Cl)cc1)c1ccc(C(=O)c2ccc(Oc3cccc4c3CCCC4)c(-c3nnn[nH]3)c2)cc1 [10:1, {4-[(4-Chloro-phenyl)-methyl-amino]-phenyl}-[4-(5,6,7,8-tetrahydro-naphthalen-1-yloxy)-3-(1H-tetrazol-5-yl)-phenyl]-methanone] | 97 |
| O=C(c1ccc(NS(=O)(=O)c2ccc(Cl)cc2)cc1)c1ccc(NC(=O)c2cc(Cl)ccc2O)c(C(=O)O)c1 [7:8, 5-[4-(4-Chloro-benzenesulfonylamino)-benzoyl]-2-(5-chloro-2-hydroxy-benzoylamino)-benzoic acid] | 96 |
| O=C(c1ccc(Nc2ccc(Cl)cc2)cc1)c1ccc(Oc2ccc(F)c(F)c2)c(C(=O)O)c1 [8:3, 5-[4-(4-Chloro-phenylamino)-benzoyl]-2-(3,4-difluoro-phenoxy)-benzoic acid] | 100 |
| O=C(c1ccc(Nc2ccc(Cl)cc2)cc1)c1ccc(Nc2ccc(F)c(F)c2)c(C(=O)O)c1 [Example 16, 5-(4-(4-chlorophenylamino)-benzoyl)-2-(3,4-difluoro-phenylamino)benzoic acid] | 94 |
| O=C(Nc1ccc(C(=O)c2ccc(NC(=O)c3cccc(Cl)c3)c(C(=O)O)c2)cc1)c1cccc(Cl)c1 [7:1, 2-(3-Chloro-benzoylamino)-5-[4-(3-chloro-benzoylamino)-benzoyl]-benzoic acid] | 97 |
| O=C(c1ccc(NS(=O)(=O)c2ccc(Cl)cc2)cc1)c1ccc(NC(=O)c2cccc(C(F)(F)F)c2F)c(C(=O)O)c1 [7:9, 5-[4-(4-Chloro-benzenesulfonylamino)-benzoyl]-2-(2-fluoro-3-trifluoromethyl-benzoylamino)-benzoic acid] | 99 |
| O=C(c1ccc(NC(=O)c2ccccc2Cl)cc1)c1ccc(Nc2ccc(F)c(F)c2)c(C(=O)O)c1 [5:5, 5-[4-(2-Chloro-benzoylamino)-benzoyl]-2-(3,4-difluoro-phenylamino)-benzoic acid] | 97 |
| CCCCc1ccc(C(=O)Nc2ccc(C(=O)c3ccc(NC(=O)c4ccc(CCCC)cc4)c(C(=O)O)c3)cc2C(=O)O)cc1 [Example 3, 2-(4-butylbenzamido)-5-(4-(4-butylbenzamido)-3-carboxy-phenylcarbonyl)benzoic acid] | 98 |
| CN(c1ccc(Cl)cc1)c1ccc(C(=O)c2ccc(NC3CCC(C(C)(C)C)CC3)c(C(=O)O)c2)cc1 (stereo not shown) [Example 14:3, 2-(4-tert-Butyl-cyclohexylamino)-5-{4-[(4-chloro-phenyl)-methyl-amino]-benzoyl}-benzoic acid] | 86 |
| CN(c1ccc(Cl)cc1)c1ccc(C(=O)c2ccc(Oc3cccc(Cl)c3)c(C(=O)O)c2)cc1 [6:2, 2-(3-Chloro-phenoxy)-5-{4-[(4-chloro-phenyl)-methyl-amino]-benzoyl}-benzoic acid] | 96 |
| COc1ccc(Cl)cc1S(=O)(=O)Nc1ccc(C(=O)c2ccc(NC(=O)c3cccc(Cl)c3)cc2)cc1C(=O)O [7:3, 5-[4-(3-Chloro-benzoylamino)-benzoyl]-2-(5-chloro-2-methoxy-benzenesulfonylamino)-benzoic acid] | 96 |
| O=C(Nc1ccc(C(=O)c2ccc(Oc3ccc(F)c(F)c3)c(C(=O)O)c2)cc1)c1cccc(Cl)c1 [8:4, 5-[4-(3-Chloro-benzoylamino)-benzoyl]-2-(3,4-difluoro-phenoxy)-benzoic acid] | 88 |
| CCCCOc1ccc(S(=O)(=O)Nc2ccc(C(=O)c3ccc(Nc4ccc(F)c(F)c4)c(C(=O)O)c3)cc2)cc1 [Example 14, 5-(4-(4-butoxyphenylsulfonamido)benzoyl)-2-(3,4-difluorophenylamino)benzoic acid] | 100 |
| O=C(c1ccc(NC(=O)c2cc(Cl)cnc2Cl)cc1)c1ccc(Nc2ccc(F)c(F)c2)c(C(=O)O)c1 [5:12, 5-{4-[(2,5-Dichloro-pyridine-3-carbonyl)-amino]-benzoyl}-2-(3,4-difluoro-phenylamino)-benzoic acid] | 98 |
| O=C(Nc1ccc(C(=O)c2ccc(Nc3ccc(F)c(F)c3)c(C(=O)O)c2)cc1)Nc1cccc(Cl)c1 [5:1, 5-{4-[3-(3-Chloro-phenyl)-ureido]-benzoyl}-2-(3,4-difluoro-phenylamino)-benzoic acid] | 95 |
| O=C(c1ccc(Nc2ccc(F)c(F)c2)c(C(=O)O)c1)c1ccc(Nc2ccc(F)c(F)c2)c(C(=O)O)c1 [Example 1, 2-(3,4-difluorophenylamino)-5-((4-(3,4-difluorophenylamino)-3-carboxyphenylcarbonyl))benzoic acid] | 93 |
| O=C(Nc1ccc(C(F)(F)F)cc1)Nc1ccc(C(=O)c2ccc(NC(=O)Nc3ccc(C(F)(F)F)cc3)c(C(=O)O)c2)cc1C(=O)O [Example 6, 2-[3-(4-trifluoromethylphenyl)-ureido]-5-{3-carboxy-4-[3-(4-trifluoromethylphenyl)ureido]-benzoyl}benzoic acid] | 95 |
| O=C(c1ccc(NC(=O)c2ccc(Cl)cc2Cl)c(C(=O)O)c1)c1ccc(NC(=O)c2ccc(Cl)cc2Cl)c(C(=O)O)c1 [Example 10, 2-(2,4-dichlorobenzamido)-5-(4-(2,4-dichlorobenzamido)-3-carboxyphenylcarbonyl)-benzoic acid] | 82 |
| CN(c1ccc(Cl)cc1)c1ccc(C(=O)c2ccc(Oc3cccc(Cl)c3Cl)c(C(=O)O)c2)cc1 [6:9, 5-{4-[(4-Chloro-phenyl)-methyl-amino]-benzoyl}-2-(2,3-dichloro-phenoxy)-benzoic acid] | 66 |
| O=C(c1ccc(NS(=O)(=O)c2ccc(Cl)cc2)cc1)c1ccc(NC(=O)c2cccc(Cl)c2Cl)c(C(=O)O)c1 [7:10, 5-[4-(4-Chloro-benzenesulfonylamino)-benzoyl]-2-(2,3-dichloro-benzoylamino)-benzoic acid] | 99 |
| CN(c1ccc(Cl)cc1)c1ccc(C(=O)c2ccc(Oc3ccccc3OC(F)(F)C(F)F)c(C(=O)O)c2)cc1 [6:8, 5-{4-[(4-Chloro-phenyl)-methyl-amino]-benzoyl}-2-[2-(1,1,2,2-tetrafluoro-ethoxy)-phenoxy]-benzoic acid] | 98 |
| CN(c1ccc(Cl)cc1)c1ccc(C(=O)c2ccc(Nc3ccccc3C(F)(F)F)c(C(=O)O)c2)cc1 [9:2, 5-{4-[(4-Chloro-phenyl)-methyl-amino]-benzoyl}-2-(2-trifluoromethyl-phenylamino)-benzoic acid] | 55 |
| O=C(Nc1ccc(C(=O)c2ccc(NC(=O)c3ccc(Cl)cc3Cl)c(C(=O)O)c2)cc1C(=O)O)c1ccc(OC(F)(F)F)cc1 [Example 11, 2-(4-(trifluoromethoxy)benzamido)-5-(4-(2,4-dichloro-benzamido)-3-carboxyphenyl-carbonyl)benzoic acid] | 100 |

— patent US20100286215A1, “BIS-AROMATIC COMPOUNDS USEFUL IN THE TREATMENT OF INFLAMMATION” (BIS-AROMATIC COMPOUNDS USEFUL IN THE TREATMENT OF …, priority 2007, published 2010)
